The values below come from US11325916B1, “Spiropyrrolidine derived antiviral agents” (priority 2021, dated 2022).

Experiment [1] concerns the target SARS-CoV-2 3CL-protease (Severe acute respiratory syndrome coronavirus 2 (2019-nCoV) (SARS-CoV-2), UniProt P0DTD1). In words: SARS-CoV-2 3C-Like (3CL) Protease Fluorescence Assay (FRET). Format: biochemical.
Experiment [2] has as its system 229E human corona virus (hCoV). In words: 229E Live Virus Assay (MRC-5 cells, CPE, ATPlite readout). Format: cell-based, hCoV-229E. Conditions: read-out: 229E EC50. For orientation: In ATP-based viability assays light output follows the ATP content of the culture.
[3] abbreviates: Human coronavirus 229E, MRC5, 144 h.
[4] abbreviates: Human coronavirus 229E, MRC5, 144 h, MRC-5 cells, hCoV-229E MOI 0.05, 6 days at 34° C., ATPlite, duplicate, ranges defined in μM.

Where two headings read alike, the source gives them in different places.

The IC50 is the concentration that inhibits the measured activity by half. As a reminder, the EC50 is the concentration giving half of the maximal effect. Take `CC(C)C[C@@H](C(=O)N1C[C@]2(C[C@H]1C#N)C(=O)Nc1ccccc12)N(C)C(=O)[C@H](Cc1ccc(F)cc1)NC(=O)OCc1ccccc1` [Example 1]: the concentration for half-maximal inhibition (IC50) in experiment [1] is below 100 nM. The EC50 in experiment [2] (setting [3]) is below 0.1 µM.

With `CC(C)C[C@@H](C(=O)N1C[C@]2(C[C@H]1C#N)C(=O)Nc1ccccc12)N(C)C(=O)[C@H](Cc1ccc(F)cc1)NC(=O)C(F)(F)F` [Example 2], the IC50 in experiment [1] was below 100 nM. Besides, the EC50 in experiment [2] (setting [4]) was below 0.1 µM.

Consider `COC(=O)N[C@@H](Cc1ccc(F)cc1)C(=O)N(C)[C@@H](CC(C)C)C(=O)N1C[C@]2(C[C@H]1C#N)C(=O)Nc1ccccc12` [Example 3], for which, in experiment [1], the IC50 is below 100 nM. Further, in experiment [2] (setting [3]), the concentration for a half-maximal effect (EC50) was below 0.1 µM.

In experiment [1], `Cc1cc(C(=O)N[C@@H](Cc2ccc(F)cc2)C(=O)N(C)[C@@H](CC(C)C)C(=O)N2C[C@]3(C[C@H]2C#N)C(=O)Nc2ccccc23)no1` [Example 4] returned an IC50 below 100 nM. In experiment [2] (setting [4]), the EC50 was below 0.1 µM.

For the compound `CN(C(=O)[C@H](Cc1ccc(F)cc1)NC(=O)OCc1ccccc1)[C@@H](CC(C)(C)C)C(=O)N1C[C@]2(C[C@H]1C#N)C(=O)Nc1ccccc12` [Example 5], in experiment [1], the 50% inhibitory concentration (IC50) is below 100 nM. In addition, the EC50 in experiment [2] (setting [3]) was below 0.1 µM.

In experiment [1], `CN(C(=O)[C@H](Cc1ccc(F)cc1)NC(=O)C(F)(F)F)[C@@H](CC(C)(C)C)C(=O)N1C[C@]2(C[C@H]1C#N)C(=O)Nc1ccccc12` [Example 6] gave an IC50 below 100 nM. Besides, the EC50 in experiment [2] (setting [4]) was below 0.1 µM.

As to `CN(C(=O)[C@H](Cc1ccc(F)cc1)NC(=O)c1cc2c(F)cc(F)c(F)c2[nH]1)[C@@H](CC(C)(C)C)C(=O)N1C[C@]2(C[C@H]1C#N)C(=O)Nc1ccccc12` [Example 7], the IC50 in experiment [1] is below 100 nM. For the same compound, in experiment [2] (setting [3]), the EC50 is below 0.1 µM.

`CN(C(=O)[C@H](Cc1ccc(F)cc1)NC(=O)NC1CC1)[C@@H](CC(C)(C)C)C(=O)N1C[C@]2(C[C@H]1C#N)C(=O)Nc1ccccc12` [Example 8] came in with an IC50 in experiment [1] below 100 nM. Moreover, the EC50 in experiment [2] (setting [3]) is below 0.1 µM.

For `CN(C(=O)[C@H](Cc1ccc(F)cc1)n1cc(C2CC2)nn1)[C@@H](CC(C)(C)C)C(=O)N1C[C@]2(C[C@H]1C#N)C(=O)Nc1ccccc12` [Example 9], the IC50 in experiment [1] was below 100 nM. Besides, the EC50 in experiment [2] (setting [4]) was below 0.1 µM.

Regarding `CC(C)C[C@@H](C(=O)N1C[C@]2(C[C@H]1C#N)C(=O)Nc1ccccc12)N1CC[C@H](NC(=O)OC(C)(C)C)C1=O` [Example 10], the IC50 in experiment [1] is 100 to 1000 nM. In addition, the EC50 in experiment [2] (setting [4]) lay within 0.1 to 1 µM.

As for `CC(C)C[C@@H](C(=O)N1C[C@]2(C[C@H]1C#N)C(=O)Nc1ccccc12)N(C)C(=O)[C@@H](NC(=O)OCc1ccccc1)C(C)(C)C` [Example 11], the IC50 in experiment [1] is below 100 nM. Moreover, the EC50 in experiment [2] (setting [3]) is 0.1 to 1 µM.

On to `CC(C)C[C@@H](C(=O)N1C[C@]2(C[C@H]1C#N)C(=O)Nc1ccccc12)N(C)C(=O)[C@@H](NC(=O)C(F)(F)F)C(C)(C)C` [Example 12], for which the IC50 in experiment [1] is below 100 nM. Moreover, the EC50 in experiment [2] (setting [3]) lay within 0.1 to 1 µM.

On to `COC(=O)N[C@H](C(=O)N(C)[C@@H](CC(C)C)C(=O)N1C[C@]2(C[C@H]1C#N)C(=O)Nc1ccccc12)C(C)(C)C` [Example 13], for which the IC50 in experiment [1] is below 100 nM. Moreover, the EC50 in experiment [2] (setting [3]) was 0.1 to 1 µM.

`CC(C)C[C@@H](C(=O)N1C[C@]2(C[C@H]1C#N)C(=O)Nc1ccccc12)N(C)C(=O)[C@H](CC1CC1)NC(=O)OCc1ccccc1` [Example 14] came in with an IC50 in experiment [1] below 100 nM. The EC50 in experiment [2] (setting [3]) is below 0.1 µM.

In turn, `CC(C)C[C@@H](C(=O)N1C[C@]2(C[C@H]1C#N)C(=O)Nc1ccccc12)N(C)C(=O)[C@H](CC1CC1)NC(=O)C(F)(F)F` [Example 15] had an IC50 in experiment [1] below 100 nM. In addition, in experiment [2] (setting [3]), the EC50 was below 0.1 µM.

In experiment [1], `CC(C)(C)C[C@H](NC(=O)[C@H](CC1CC1)NS(=O)(=O)C1CC1)C(=O)N1C[C@]2(C[C@H]1C#N)C(=O)Nc1ccccc12` [Example 37] displayed an IC50 below 100 nM.

Consider `CC(C)(C)C[C@H](NC(=O)[C@H](CC1CC1)NC(=O)NC1CC1)C(=O)N1C[C@]2(C[C@H]1C#N)C(=O)Nc1ccccc12` [Example 38], for which, in experiment [1], the IC50 is below 100 nM.

`CC(C)(C)C[C@H](NC(=O)[C@H](CC1CC1)n1cc(C2CC2)nn1)C(=O)N1C[C@]2(C[C@H]1C#N)C(=O)Nc1ccccc12` [Example 53]: the IC50 in experiment [1] is below 100 nM.

On to `CC(C)(C)C[C@H](NC(=O)[C@H](CC1CC1)NC(=O)C1(c2ccccc2)CC1)C(=O)N1C[C@]2(C[C@H]1C#N)C(=O)Nc1ccccc12` [Example 71], for which the IC50 in experiment [1] is below 100 nM.

With `CC(C)(C)C[C@H](NC(=O)[C@H](CC1CC1)NC(=O)C(F)(F)c1ccccc1)C(=O)N1C[C@]2(C[C@H]1C#N)C(=O)Nc1ccccc12` [Example 79], the IC50 in experiment [1] is below 100 nM.

Compound `CC(C)(C)C[C@H](NC(=O)[C@H](CC1CC1)NC(=O)N1CCOCC1)C(=O)N1C[C@]2(C[C@H]1C#N)C(=O)Nc1ccccc12` [Example 84] showed a half-maximal inhibitory concentration (IC50) in experiment [1] below 100 nM.

For the compound `CC(=O)N[C@@H](CC1CC1)C(=O)N[C@@H](CC(C)(C)C)C(=O)N1C[C@]2(C[C@H]1C#N)C(=O)Nc1ccccc12` [Example 95], in experiment [1], the IC50 was below 100 nM.

In turn, `CC(C)(C)C[C@H](NC(=O)[C@H](CC1CC1)NC(=O)C(F)(F)F)C(=O)N1C[C@]2(C[C@H]1C#N)C(=O)Nc1ccccc12` [Example 96] returned an IC50 in experiment [1] below 100 nM.

In experiment [1], `CC(C)(C)C[C@H](NC(=O)[C@H](CC1CC1)NC(=O)c1ccc(F)cc1)C(=O)N1C[C@]2(C[C@H]1C#N)C(=O)Nc1ccccc12` [Example 97] registered an IC50 below 100 nM.

In experiment [1], `CC(C)(C)C[C@H](NC(=O)[C@H](CC1CC1)NC(=O)c1cnccn1)C(=O)N1C[C@]2(C[C@H]1C#N)C(=O)Nc1ccccc12` [Example 98] gave an IC50 below 100 nM.

In experiment [1], `Cc1cc(C(=O)N[C@@H](CC2CC2)C(=O)N[C@@H](CC(C)(C)C)C(=O)N2C[C@]3(C[C@H]2C#N)C(=O)Nc2ccccc23)no1` [Example 99] returned an IC50 below 100 nM.

Compound `Cc1ncc(C(=O)N[C@@H](CC2CC2)C(=O)N[C@@H](CC(C)(C)C)C(=O)N2C[C@]3(C[C@H]2C#N)C(=O)Nc2ccccc23)s1` [Example 100] came in with an IC50 in experiment [1] below 100 nM.

Regarding `CC(C)(C)C[C@H](NC(=O)[C@H](CC1CC1)NC(=O)N1CCCCC1)C(=O)N1C[C@]2(C[C@H]1C#N)C(=O)Nc1ccccc12` [Example 101], in experiment [1], the IC50 is below 100 nM.

`CC(C)(C)C(NC(=O)C(F)(F)F)C(=O)N1CCC[C@H]1C(=O)N1C[C@]2(C[C@H]1C#N)C(=O)Nc1ccccc12` (stereo partly shown) [Example 102]: in experiment [1], the half-inhibitory concentration (IC50) was above 1000 nM.

Take `CC(=O)N[C@@H](Cc1ccc(F)cc1)C(=O)N(C)[C@@H](CC(C)(C)C)C(=O)N1C[C@]2(C[C@H]1C#N)C(=O)Nc1ccccc12` [Example 103]: the half-maximal inhibitory concentration (IC50) in experiment [1] is below 100 nM.

On to `CC(C)(C)C[C@H](NC(=O)[C@H](Cc1ccc(F)cc1)NC(=O)c1cnccn1)C(=O)N1C[C@]2(C[C@H]1C#N)C(=O)Nc1ccccc12` [Example 104], for which the IC50 in experiment [1] is below 100 nM.

Turning to `Cc1cc(C(=O)N[C@@H](Cc2ccc(F)cc2)C(=O)N[C@@H](CC(C)(C)C)C(=O)N2C[C@]3(C[C@H]2C#N)C(=O)Nc2ccccc23)no1` [Example 105], the IC50 in experiment [1] was below 100 nM.

`CN(C)[C@@H](CC1CC1)C(=O)N[C@@H](CC(C)(C)C)C(=O)N1C[C@]2(C[C@H]1C#N)C(=O)Nc1ccccc12` [Example 106]: the IC50 in experiment [1] was above 1000 nM.

Regarding `CC(C)[C@H](NS(=O)(=O)c1ccc(F)cc1)C(=O)N(C)[C@@H](CC(C)(C)C)C(=O)N1C[C@]2(C[C@H]1C#N)C(=O)Nc1ccccc12` [Example 111], the EC50 in experiment [2] (MRC-5 cells, hCoV-229E MOI 0.05, 6 days at 34° C., ATPlite, duplicate, ranges defined in μM) is 0.1 to 1 µM.

The compound `CC(C)C[C@@H](C(=O)N1C[C@]2(C[C@H]1C#N)C(=O)Nc1ccccc12)N(C)C(=O)[C@@H](NC(=O)C(F)(F)F)c1ccccc1` [Example 116] came in with an IC50 in experiment [1] below 100 nM.

`CC(C)C[C@@H](C(=O)N1C[C@]2(C[C@H]1C#N)C(=O)Nc1ccccc12)N(C)C(=O)[C@H](NC(=O)C(F)(F)F)c1ccccc1` [Example 117]: the IC50 in experiment [1] was below 100 nM.

`CC(C)C[C@@H](C(=O)N1C[C@]2(C[C@H]1C#N)C(=O)Nc1ccccc12)N(C)C(=O)C(NC(=O)c1ccc(F)c(F)c1)c1ccccc1` (stereo partly shown) [Example 118] displayed an IC50 in experiment [1] below 100 nM.

Turning to `CC(C)(C)C[C@H](NC(=O)[C@H](CC1CC1)N1CCOC1=O)C(=O)N1C[C@]2(C[C@H]1C#N)C(=O)Nc1ccccc12` [Example 119], the IC50 in experiment [1] was below 100 nM.

In experiment [1], `CN(C(=O)[C@H](CC1CC1)NC(=O)c1cc(OC(F)(F)F)c2ncccc2c1)[C@@H](CC(C)(C)C)C(=O)N1C[C@]2(C[C@H]1C#N)C(=O)Nc1ccccc12` [Example 125] had an IC50 below 100 nM.

As for `CN(C(=O)[C@H](CC1CC1)NC(=O)c1cc2c(F)cc(F)c(F)c2[nH]1)[C@@H](CC(C)(C)C)C(=O)N1C[C@]2(C[C@H]1C#N)C(=O)Nc1ccccc12` [Example 126], the IC50 in experiment [1] was below 100 nM.

With `CN(C(=O)[C@H](CC1CC1)NC(=O)c1cc(F)c2nn(C3CC3)cc2c1)[C@@H](CC(C)(C)C)C(=O)N1C[C@]2(C[C@H]1C#N)C(=O)Nc1ccccc12` [Example 127], in experiment [1], the IC50 is below 100 nM.

`CC(=O)N[C@@H](C)C(=O)N(C)[C@@H](CC(C)(C)C)C(=O)N1C[C@]2(C[C@H]1C#N)C(=O)Nc1ccccc12` [Example 129]: the IC50 in experiment [1] was below 100 nM.

In turn, `CC(C)C(=O)N[C@@H](C)C(=O)N(C)[C@@H](CC(C)(C)C)C(=O)N1C[C@]2(C[C@H]1C#N)C(=O)Nc1ccccc12` [Example 130] displayed an IC50 in experiment [1] below 100 nM.

As for `CN(C(=O)[C@H](CC1CC1)NC(=O)c1ccc(OC2CC2)c(OC2CC2)c1)[C@@H](CC(C)(C)C)C(=O)N1C[C@]2(C[C@H]1C#N)C(=O)Nc1ccccc12` [Example 131], the IC50 in experiment [1] is below 100 nM.

In experiment [1], `CN(C)[C@@H](CC1CC1)C(=O)N(C)[C@@H](CC(C)(C)C)C(=O)N1C[C@]2(C[C@H]1C#N)C(=O)Nc1ccccc12` [Example 132] had an IC50 of 100 to 1000 nM.

Turning to `CC(C)C[C@@H](C(=O)N1C[C@]2(C[C@H]1C#N)C(=O)Nc1ccccc12)N(C)C(=O)[C@H](C)NC(=O)c1ccc(F)cc1` [Example 135], the IC50 in experiment [1] was below 100 nM.
